{"source": "paper PMC2365198", "about": "“Chemistry and Pharmacokinetics of Gallium Maltolate, a Compound With High Oral Gallium Bioavailability” (Metal-Based Drugs, 2000)", "key": {"[1]": {"conditions": "dog, in vivo, 1.5 mg/kg"}, "[2]": {"parameters": "method as in earlier work", "conditions": "human cancer patients, single oral dose 800 mg (317 mg Ga); cited from earlier work"}, "[3]": {"experiment": "Pharmacokinetics of single oral dose of gallium chloride in cancer patients (data of Collery et al.)", "type": "in vivo, human", "conditions": "data of ref 12"}, "[4]": {"experiment": "Solubility in water", "type": "physicochemical", "conditions": "25 C; listed as GaM"}, "[5]": {"experiment": "Stability of dilute aqueous solution as a function of pH (absorbance at 303 nm)", "type": "physicochemical"}, "[6]": {"conditions": "human, in vivo, po"}, "[7]": {"experiment": "Clinical single-dose escalation study, pharmacokinetics of oral gallium maltolate (serum and urine gallium)", "conditions": "human; for FAe: cumulative urinary excretion as fraction of administered dose: 72h; for F (V=29.5 L): from V/F"}, "[8]": {"experiment": "Dog bioavailability study (serum gallium)", "conditions": "healthy young beagle dogs, intraduodenal or oral"}, "[9]": {"system": "healthy human subjects", "experiment": "Clinical single-dose escalation study, safety and tolerability"}, "[10]": {"conditions": "single oral dose 100 mg [15.7 mg Ga]"}, "[11]": {"conditions": "single oral dose 200 mg [31.3 mg Ga]"}, "[12]": {"conditions": "single oral dose 300 mg [47.0 mg Ga]"}, "[13]": {"conditions": "single oral dose 500 mg [78.4 mg Ga]"}}, "note": "Where “and” joins values, the source holds several entries; their conditions need not be identical. Equal entries are not always repeated.", "data": [{"smiles": "O=[N+]([O-])[O-].O=[N+]([O-])[O-].O=[N+]([O-])[O-].[Ga+3]", "note": "[Ga nitrate, gallium nitrate]", "values": [{"measurement": "Cmax", "setting": "[1]", "value": "0.31 (0.02) lg/mL"}, {"measurement": "K01 half life", "setting": "[1]", "value": "0.8(0.2) h"}, {"measurement": "Tmax", "setting": "[1]", "value": "3.1 (0.4) h"}, {"measurement": "beta half life", "setting": "[1]", "value": "9.9(2.4) h"}]}, {"smiles": "[Cl][Ga]([Cl])[Cl]", "note": "[GaCI3, gallium chloride]", "values": [{"measurement": "Estimated V/F", "setting": "[2]", "value": "2862(297) L"}, {"measurement": "Gallium bioavailability using the estimated value for V/F", "setting": "[3]; human cancer patients, single oral dose 800 mg (317 mg Ga)", "value": "approximately 0.010"}, {"measurement": "Estimated oral bioavailability", "setting": "[3]; human, oral", "value": "≤ 2", "unit": "%"}]}, {"smiles": "Cc1occc(=O)c1[O-].Cc1occc(=O)c1[O-].Cc1occc(=O)c1[O-].[Ga+3]", "note": "[gallium maltolate, tris(3-hydroxy-2-methyl-4H-pyran-4-onato)gallium]", "values": [{"measurement": "Solubility in water", "setting": "[4]", "value": "10.7 ± 0.9 mg/mL and 24(2) mM"}, {"measurement": "Dissociation in dilute aqueous solution", "setting": "[5]; 2.5 x 10^-5 M, pH 5.5-8.0", "value": "little dissociation"}, {"measurement": "Gallium maltolate complex undissociated", "setting": "[5]; dilute aqueous solution (2.5 x 10^-5 M), pH approximately 5.5 to 8", "value": "at least 98%"}, {"measurement": "F, range over doses (from V/F with V 29.5 L)", "setting": "[6]", "value": "0.25-0.40"}, {"measurement": "Dose dependence of absorption", "setting": "[7]; oral, dosage range 100-500 mg", "value": "dose proportional"}, {"measurement": "Urinary Ga excretion, of the administered dose", "setting": "[7]; oral, over 72h", "value": "approximately 2%"}, {"measurement": "Ae: cumulative urinary excretion of gallium in 72h", "setting": "[7]; [10]", "value": "0.35(0.14) mg"}, {"measurement": "Lag time", "setting": "[7]; [10]", "value": "0.32(0.05) h"}, {"measurement": "FAe: cumulative urinary excretion as fraction of administered dose", "setting": "[7]; [10]", "value": "0.022(0.001)"}, {"measurement": "F (V=29.5 L)", "setting": "[7]; [10]", "value": 0.28}, {"measurement": "Ae: cumulative urinary excretion of gallium in 72h", "setting": "[7]; [11]", "value": "0.66(0.28) mg"}, {"measurement": "Lag time", "setting": "[7]; [11]", "value": "0.42(0.04) h"}, {"measurement": "FAe: cumulative urinary excretion as fraction of administered dose", "setting": "[7]; [11]", "value": "0.021(0.001)"}, {"measurement": "F (V=29.5 L)", "setting": "[7]; [11]", "value": 0.35}, {"measurement": "Ae: cumulative urinary excretion of gallium in 72h", "setting": "[7]; [12]", "value": "1.11(0.08) mg"}, {"measurement": "Lag time", "setting": "[7]; [12]", "value": "0.24(0.06) h"}, {"measurement": "FAe: cumulative urinary excretion as fraction of administered dose", "setting": "[7]; [12]", "value": "0.023(0.000)"}, {"measurement": "F (V=29.5 L)", "setting": "[7]; [12]", "value": 0.40}, {"measurement": "Ae: cumulative urinary excretion of gallium in 72h", "setting": "[7]; [13]", "value": "1.37(0.52) mg"}, {"measurement": "Lag time", "setting": "[7]; [13]", "value": "0.20(0.08) h"}, {"measurement": "FAe: cumulative urinary excretion as fraction of administered dose", "setting": "[7]; [13]", "value": "0.018(0.001)"}, {"measurement": "F (V=29.5 L)", "setting": "[7]; [13]", "value": 0.25}, {"measurement": "Central compartment excretion half life", "setting": "[7]; single oral doses 100-500 mg", "value": "17 to 21", "unit": "h"}, {"measurement": "Estimated oral gallium bioavailability", "setting": "[7]; single oral doses 100-500 mg, comparison with published i.v. gallium nitrate data", "value": "25-57%"}, {"measurement": "Absorption of Ga into blood plasma relative to intraduodenal Ga nitrate", "setting": "[8]", "value": "several times higher"}, {"measurement": "Change in renal function (serum creatinine clearance, serum urea, BUN clearance, urinary microglobulin, urinalysis)", "setting": "[9]; healthy human subjects, oral", "value": "none of the subjects who took oral GaM showed any change in renal function"}, {"measurement": "Serious treatment-related adverse events", "setting": "[9]; healthy human subjects, single oral doses 100-500 mg", "value": "no reports of serious treatment-related adverse events"}, {"measurement": "Subjects reporting possible drug-related adverse events", "setting": "[9]; healthy human subjects, single oral doses 100-500 mg, mild headache (100 mg), moderate coughs (200 mg)", "value": "Three of the twelve subjects"}, {"measurement": "Tolerability", "setting": "[9]; healthy human volunteers, single oral doses of 100, 200, 300 and 500 mg", "value": "very well tolerated"}]}]}
